Results reported in PubChem BioAssay (NCI).
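Test compounds were applied to cells in 96-well plates for 48 hours at 5 doses. At the GI50, growth is halved. TGI marks complete inhibition of growth.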

Experiments:
Experiment in all cases: inhibition of tumour cell growth, NCI panel, 48 h
A549 NSCLC = tested on: A549 NSCLC
ACHN renal = tested on: ACHN renal
EKVX NSCLC = tested on: EKVX NSCLC
HT29 colon = tested on: HT29 colon
K-562 leukemia = tested on: K-562 leukemia
MALME-3M melanoma = tested on: MALME-3M melanoma
OVCAR-8 ovarian = tested on: OVCAR-8 ovarian
RXF 393 renal = tested on: RXF 393 renal
HCT-15 colon = tested on: HCT-15 colon
MCF7 breast = tested on: MCF7 breast

Row | SMILES | TGI (A549 NSCLC) | TGI (ACHN renal) | TGI (EKVX NSCLC) | TGI (HT29 colon) | TGI (K-562 leukemia) | TGI (MALME-3M melanoma) | TGI (OVCAR-8 ovarian) | TGI (RXF 393 renal) | TGI (HCT-15 colon) | TGI (MCF7 breast) | GI50 (A549 NSCLC) | GI50 (ACHN renal) | GI50 (EKVX NSCLC) | GI50 (HCT-15 colon) | GI50 (MALME-3M melanoma) | GI50 (MCF7 breast) | GI50 (OVCAR-8 ovarian) | GI50 (RXF 393 renal) | GI50 (HT29 colon) | GI50 (K-562 leukemia)
1 | FC(F)(F)c1ccccc1C1SCc2nc3ccccc3n21 (stereo not drawn) | > 100 µM | > 100 µM | > 100 µM | > 100 µM | > 100 µM | > 100 µM | > 100 µM | > 100 µM |  |  |  |  |  |  |  |  |  |  |  | 
2 | CC(C)(O)C1COC2=C1C(=O)c1ccccc1C2=O (stereo not drawn) | > 100 µM | > 100 µM | > 100 µM | > 100 µM | > 100 µM |  | 84.6 µM |  | > 100 µM | 40.1 µM |  |  |  |  |  |  |  |  |  | 
3 | COC(=O)c1c(C(=O)OC)c(-c2ccccc2)n(-c2ccccc2)c(=O)c1-c1ccccc1 | > 100 µM |  | > 100 µM | > 100 µM | > 100 µM | > 100 µM | > 100 µM | 60.8 µM | > 100 µM |  |  |  |  |  |  |  |  |  |  | 
4 | O=C(N/C(=C\c1ccc([N+](=O)[O-])cc1)c1nc2ccccc2s1)c1ccccc1 | > 100 µM | 92.1 µM |  | > 100 µM | 59.2 µM | > 100 µM | 64.2 µM | 78.4 µM | > 100 µM |  |  |  |  |  |  |  |  |  |  | 
5 | COC(=O)CC1(O)C(=O)OCc2c1cc1n(c2=O)Cc2c-1nc1ccccc1c2OC (stereo not drawn) | > 100 µM | 1.02 µM | > 100 µM | > 100 µM | > 100 µM | > 100 µM | > 28.5 µM | 8.42 µM | > 100 µM |  |  |  |  |  |  |  |  |  |  | 
6 | COC1C(OC(=O)c2ccc(C)[nH]2)C(O)C(Oc2ccc3c(O)c(NC(=O)c4ccc(O)c(CC=C(C)C)c4)c(=O)oc3c2Cl)OC1(C)C (stereo not drawn) | 91.7 µM | 77.5 µM | 61.9 µM | 29.7 µM | > 100 µM | 34 µM | 52 µM |  | 38.1 µM | 54.2 µM |  |  |  |  |  |  |  |  |  | 
7 | C=CCNC(=S)NNC(=O)c1c(C)nc2sccn12 | > 100 µM | > 100 µM | > 100 µM | > 100 µM | > 100 µM | > 100 µM | > 100 µM | > 100 µM | > 100 µM |  |  |  |  |  |  |  |  |  |  | 
8 | CCN(CC)CCOC(COc1cc(C)cc(C)c1)COc1cc(C)cc(C)c1 | 16.9 µM | 13.8 µM | 11.8 µM |  |  | 3.86 µM | 22.2 µM | 5.07 µM | 12.4 µM | 5.33 µM | 4.56 µM | 3.6 µM | 2.91 µM | 3.01 µM | 1.88 µM | 2.17 µM | 7.23 µM | 2.06 µM |  | 
9 | CC(=O)CCC1(c2ccccc2)OC(=O)C(C#N)=C1c1ccccc1 (stereo not drawn) | > 100 µM | > 100 µM | > 100 µM | > 100 µM | > 100 µM | > 100 µM | > 100 µM |  | > 100 µM |  |  |  |  |  |  |  |  |  |  | 
10 | Cc1ccc(NCCNCC(C)(C)O)c2c(=O)c3ccc(Cl)cc3sc12 | 3.09 µM |  | 2.87 µM | 3.1 µM |  | 3.23 µM | 3.32 µM | 2.61 µM | 2.32 µM | 2.97 µM | 1.64 µM |  | 1.38 µM | 1.05 µM | 1.59 µM | 1.44 µM | 1.77 µM | 1.26 µM | 1.61 µM | 
11 | CN1C2C=CC(=O)C1C1C(=O)N(c3ccccc3)C(=O)C12 (stereo not drawn) | 29.1 µM | 20.9 µM | 32.7 µM | 23.4 µM | > 100 µM |  | 20.3 µM |  | 20.3 µM | 16.5 µM | 11.1 µM | 6.93 µM | 14.4 µM | 5.52 µM |  | 4.01 µM | 4.22 µM |  | 3.92 µM | 10.2 µM
12 | CC[C@H](C)[C@H](NC(=O)[C@H]1CCCCN1C)C(=O)N(C)[C@H](CCc1nc(C(=O)N[C@@H](Cc2ccccc2)C[C@H](C)C(=O)O)cs1)C(C)C | > 25 µM | > 25 µM | > 25 µM | > 25 µM | > 25 µM |  | > 25 µM |  | > 25 µM | > 25 µM | 2.98 µM | 1.37 µM | 0.92 µM | 1.34 µM |  | 0.0271 µM | 0.61 µM |  | 0.123 µM | 0.0585 µM
13 | CC(C)c1ccc(O)c(Cc2cc(C(C)C)cc(Cc3cc(C(C)C)ccc3O)c2O)c1 | 3.96 µM | 10.8 µM | 8.95 µM | 4.28 µM | 4.78 µM | 2.82 µM | 4.18 µM |  | 3.24 µM |  |  |  |  |  |  |  |  |  |  | 
14 | OC12CCC3(OC4CCCCO4)c4ccccc4C3C1c1ccccc12 (stereo not drawn) | > 100 µM | > 100 µM | > 100 µM | > 100 µM | > 100 µM | > 100 µM | > 100 µM | > 100 µM | > 100 µM |  |  |  |  |  |  |  |  |  |  | 
15 | Nc1ccc(CC[C@H]2CCC/C=C/[C@@H]3C[C@H](O)C[C@H]3[C@H](O)/C=C/C(=O)O2)cc1 | > 100 µM | > 100 µM | 2.49 µM | 0.577 µM | > 100 µM | 0.543 µM | > 100 µM | 0.0621 µM | 16.7 µM |  | 0.0437 µM | 0.0413 µM | 0.0374 µM | 0.0455 µM | 0.0731 µM |  | 0.0407 µM | 0.0215 µM | 0.0336 µM | 0.043 µM
16 | Cc1cc(Cl)ccc1N=C1NC(=O)C(CC(=O)Nc2cccc(Cl)c2)S1 (stereo not drawn) | > 100 µM | > 100 µM | > 100 µM | > 100 µM | > 100 µM | > 100 µM | > 100 µM | 72.6 µM | > 100 µM |  |  |  |  |  |  |  |  |  |  | 
17 | Cc1ccc(C)c2c1C1CCCCC3(OCCCO3)C21O (stereo not drawn) | > 100 µM | > 100 µM |  | > 100 µM | > 100 µM | > 100 µM | > 100 µM | > 100 µM | > 100 µM |  |  |  |  |  |  |  |  |  |  | 
18 | COc1cccc(/C=C2\N=C(c3ccccc3)OC2=O)c1 | > 100 µM | > 100 µM | > 100 µM | > 100 µM | > 100 µM |  | > 100 µM | > 100 µM | > 100 µM | > 100 µM |  |  |  |  |  |  |  |  |  | 
19 | COc1cc(C2CC(c3ccccc3)=NN2C=O)ccc1Oc1ccnc2cc(Cl)ccc12 (stereo not drawn) | > 100 µM | > 100 µM | > 100 µM | > 100 µM |  |  | > 100 µM | 47.6 µM | > 100 µM | > 100 µM | 8.87 µM | 17.4 µM | 3.67 µM | > 100 µM |  | 5.7 µM | 4.91 µM | 15.4 µM | > 100 µM | 
